Experimental data as given in ChEMBL document CHEMBL3525956, “Species independence in brain tissue binding using brain homogenates” (Drug Metab Dispos, 2011).

What was measured:
[1] = Fraction unbound in Wistar Han rat brain homogenates at 1 uM after 6 hrs by equilibrium dialysis method; details: brain homogenate
[2] = Fraction unbound in Sprague-Dawley rat brain homogenates at 1 uM after 6 hrs by equilibrium dialysis method; details: brain homogenate
[3] = Fraction unbound in CD-1 mouse brain homogenates at 1 uM after 6 hrs by equilibrium dialysis method; details: brain homogenate
[4] = Fraction unbound in Hartley guinea pig brain homogenates at 1 uM after 6 hrs by equilibrium dialysis method; details: brain homogenate
[5] = Fraction unbound in Beagle dog brain homogenates at 1 uM after 6 hrs by equilibrium dialysis method; details: brain homogenate
[6] = Fraction unbound in cynomolgus monkey brain homogenates at 1 uM after 6 hrs by equilibrium dialysis method; details: brain homogenate
[7] = Fraction unbound in human occipital cortex at 1 uM after 6 hrs by equilibrium dialysis method

| Structure (SMILES) | fraction unbound at 6 h, 1 µM [1] | fraction unbound at 6 h, 1 µM [2] | fraction unbound at 6 h, 1 µM [3] | fraction unbound at 6 h, 1 µM [4] | fraction unbound at 6 h, 1 µM [5] | fraction unbound at 6 h, 1 µM [6] | fraction unbound at 6 h, 1 µM [7] |
| --- | --- | --- | --- | --- | --- | --- | --- |
| CCCc1nc2c(C)cc(-c3nc4ccccc4n3C)cc2n1Cc1ccc(-c2ccccc2C(=O)O)cc1 | 0.013 | 0.017 | 0.01 | 0.008 | 0.011 | 0.013 | 0.014 |
| NC12CC3CC(CC(C3)C1)C2 [AMANTADINE] | 0.213 | 0.147 | 0.181 | 0.178 | 0.218 | 0.1 | 0.171 |
| C[C@@H](O[C@H]1OCCN(Cc2n[nH]c(=O)[nH]2)[C@H]1c1ccc(F)cc1)c1cc(C(F)(F)F)cc(C(F)(F)F)c1 [APREPITANT] | 0.001 | 0.001 | 0.002 | 0.001 | 0.001 | 0.002 | 0.001 |
| O=C1CCc2ccc(OCCCCN3CCN(c4cccc(Cl)c4Cl)CC3)cc2N1 [ARIPIPRAZOLE] | 0.001 | 0.001 | 0.001 | 0.001 | 0.001 | 0.001 | 0.002 |
| CN1CCCC(n2nc(Cc3ccc(Cl)cc3)c3ccccc3c2=O)CC1 (configuration not stated) [AZELASTINE] | 0.012 | 0.009 | 0.012 | 0.009 | 0.011 | 0.014 | – |
| CC(C)C[C@H]1C(=O)N2CCC[C@H]2[C@]2(O)O[C@](NC(=O)[C@@H]3C=C4c5cccc6[nH]c(Br)c(c56)C[C@H]4N(C)C3)(C(C)C)C(=O)N12 [BROMOCRIPTINE] | 0.002 | 0.001 | 0.002 | 0.002 | 0.002 | 0.002 | 0.002 |
| CCCCN1CCCCC1C(=O)Nc1c(C)cccc1C (configuration not stated) [BUPIVACAINE] | 0.15 | 0.098 | 0.274 | 0.204 | 0.211 | 0.195 | 0.232 |
| CC(NC(C)(C)C)C(=O)c1cccc(Cl)c1 (configuration not stated) [BUPROPION] | 0.132 | 0.171 | 0.133 | 0.177 | 0.213 | 0.167 | 0.195 |
| NC(=O)N1c2ccccc2C=Cc2ccccc21 [CARBAMAZEPINE] | 0.171 | 0.124 | 0.173 | 0.128 | 0.159 | 0.185 | 0.171 |
| CN(C)CCCN1c2ccccc2Sc2ccc(Cl)cc21 [CHLORPROMAZINE] | 0.003 | 0.002 | 0.003 | 0.003 | 0.003 | 0.004 | 0.003 |
| CCCNC(=O)NS(=O)(=O)c1ccc(Cl)cc1 [CHLORPROPAMIDE] | 0.223 | 0.668 | 0.441 | 0.65 | – | 0.699 | 0.583 |
| CN(C)CCCC1(c2ccc(F)cc2)OCc2cc(C#N)ccc21 (configuration not stated) [CITALOPRAM] | 0.05 | 0.03 | 0.06 | 0.038 | 0.057 | 0.061 | 0.047 |
| NC1CCN(c2c(F)cc3c(=O)c(C(=O)O)cn(C4CC4)c3c2Cl)C1 (configuration not stated) [CLINAFLOXACIN] | 0.148 | 0.435 | 0.377 | 0.167 | 0.398 | 0.139 | 0.157 |
| CN(C)CCCN1c2ccccc2CCc2ccc(Cl)cc21 [CLOMIPRAMINE] | 0.004 | 0.003 | 0.004 | 0.003 | 0.004 | 0.006 | 0.004 |
| CNCCCN1c2ccccc2CCc2ccccc21 [DESIPRAMINE] | 0.013 | 0.008 | 0.011 | 0.007 | 0.017 | 0.012 | 0.011 |
| CCN(CC)C(=O)/C(C#N)=C/c1cc(O)c(O)c([N+](=O)[O-])c1 [ENTACAPONE] | 0.021 | 0.017 | 0.026 | 0.019 | 0.02 | 0.031 | 0.025 |
| CCCCCCCN(CC)CCCC(O)c1ccc(NS(C)(=O)=O)cc1 (configuration not stated) [IBUTILIDE] | 0.104 | 0.081 | 0.114 | 0.075 | 0.119 | 0.078 | 0.091 |
| COc1ccc2c(c1)c(CC(=O)O)c(C)n2C(=O)c1ccc(Cl)cc1 [INDOMETHACIN] | 0.044 | 0.028 | 0.052 | 0.044 | 0.035 | 0.053 | 0.055 |
| CCN(CC)CCNC(=O)c1cc(Cl)c(N)cc1OC [METOCLOPRAMIDE] | 0.224 | 0.145 | 0.23 | 0.237 | 0.294 | 0.413 | 0.295 |
| COC(=O)C1=C(C)NC(C)=C(C(=O)OCCN(C)Cc2ccccc2)C1c1cccc([N+](=O)[O-])c1 (configuration not stated) [NICARDIPINE] | 0.005 | 0.008 | 0.004 | 0.004 | 0.006 | 0.006 | 0.006 |
| COCCOC(=O)C1=C(C)NC(C)=C(C(=O)OC(C)C)C1c1cccc([N+](=O)[O-])c1 (configuration not stated) [NIMODIPINE] | 0.01 | 0.009 | 0.007 | 0.007 | 0.007 | 0.009 | 0.008 |
| CN1Cc2c(N)cccc2C(c2ccccc2)C1 (configuration not stated) [NOMIFENSINE] | 0.066 | 0.064 | 0.078 | 0.068 | 0.072 | 0.068 | 0.071 |
| CNCCC=C1c2ccccc2CCc2ccccc21 [NORTRIPTYLINE] | 0.007 | 0.005 | 0.008 | 0.006 | 0.007 | 0.009 | 0.006 |
| Cc1nc2n(c(=O)c1CCN1CCC(c3noc4cc(F)ccc34)CC1)CCCC2O (configuration not stated) [PALIPERIDONE] | 0.092 | 0.078 | 0.129 | 0.101 | 0.126 | 0.1 | 0.116 |
| Fc1ccc([C@@H]2CCNC[C@H]2COc2ccc3c(c2)OCO3)cc1 [PAROXETINE] | 0.004 | 0.006 | 0.004 | 0.003 | 0.004 | 0.006 | 0.005 |
| O=C1NC(=O)C(c2ccccc2)(c2ccccc2)N1 [PHENYTOIN] | 0.1 | 0.134 | 0.088 | 0.082 | 0.259 | 0.114 | 0.095 |
| CO[C@H]1/C=C/O[C@@]2(C)Oc3c(C)c(O)c4c(O)c(c(/C=N/N5CCN(C)CC5)c(O)c4c3C2=O)NC(=O)/C(C)=C\C=C\[C@H](C)[C@H](O)[C@@H](C)[C@@H](O)[C@@H](C)[C@H](OC(C)=O)[C@@H]1C [RIFAMPIN] | 0.121 | 0.068 | 0.121 | 0.118 | 0.259 | 0.162 | 0.119 |
| Cc1c(C(=O)NN2CCCCC2)nn(-c2ccc(Cl)cc2Cl)c1-c1ccc(Cl)cc1 [RIMONABANT] | 0.0004 | 0.0006 | 0.0004 | 0.0004 | 0.0005 | 0.0006 | 0.0005 |
| CCN(C)C(=O)Oc1cccc([C@H](C)N(C)C)c1 [RIVASTIGMINE] | 0.338 | 0.241 | 0.341 | 0.389 | 0.487 | 0.316 | 0.345 |
| CN[C@H]1CC[C@@H](c2ccc(Cl)c(Cl)c2)c2ccccc21 [SERTRALINE] | – | – | – | – | – | – | 0.001 |
